Source: PubChem BioAssay AID1919015 (Molecular Pharmacology Branch, DTP, NCI, 2023)

Tested on: OVCAR-5 complex spheroids with HUVEC/MSC, viability, % test/control
Test: Anticancer human tumor OVCAR-5 cell line growth inhibition [AhR];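 note: spheroids exposed to compounds for 7 days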;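 for viability, T/C: 100% = DMSO vehicle control wells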
Settings: for IC50: curve of first compound; for viability, T/C: stronger effect = lower value
In short: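 Spheroids combined tumor cells with HUVEC endothelial cells and human MSCs as stroma. AhR antagonists were paired with standard or investigational drugs, each dosed in half-log steps down from near clinical Cmax, or from 10 microM where Cmax was unknown.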

[1] = second compound 0.1 µM, first compound 0.0316 µM
[2] = second compound 0.1 µM, first compound 0.1 µM
[3] = second compound 0.1 µM, first compound 0.316 µM
[4] = second compound 0.1 µM, first compound 1 µM
[5] = second compound 0.1 µM, first compound 3.16 µM
[6] = second compound 0.1 µM, first compound 10 µM
[7] = second compound 0.316 µM, first compound 0.0316 µM
[8] = second compound 0.316 µM, first compound 0.1 µM
[9] = second compound 0.316 µM, first compound 0.316 µM
[10] = second compound 0.316 µM, first compound 1 µM
[11] = second compound 0.316 µM, first compound 3.16 µM
[12] = second compound 0.316 µM, first compound 10 µM
[13] = second compound 1 µM, first compound 0.0316 µM
[14] = second compound 1 µM, first compound 0.1 µM
[15] = second compound 1 µM, first compound 0.316 µM
[16] = second compound 1 µM, first compound 1 µM
[17] = second compound 1 µM, first compound 3.16 µM
[18] = second compound 1 µM, first compound 10 µM
[19] = second compound 3.16 µM, first compound 0.0316 µM
[20] = second compound 3.16 µM, first compound 0.1 µM
[21] = second compound 3.16 µM, first compound 0.316 µM
[22] = second compound 3.16 µM, first compound 1 µM
[23] = second compound 3.16 µM, first compound 3.16 µM
[24] = second compound 3.16 µM, first compound 10 µM
[25] = second compound 10 µM, first compound 0.0316 µM
[26] = second compound 10 µM, first compound 0.1 µM
[27] = second compound 10 µM, first compound 0.316 µM
[28] = second compound 10 µM, first compound 1 µM
[29] = second compound 10 µM, first compound 3.16 µM
[30] = second compound 10 µM, first compound 10 µM

Row | Structure (SMILES) | IC50 (second compound 0.1 µM) [µM] | IC50 (second compound 0.316 µM) [µM] | IC50 (second compound 1 µM) [µM] | IC50 (second compound 3.16 µM) [µM] | IC50 (second compound 10 µM) [µM] | viability, T/C [1] [%] | viability, T/C [2] [%] | viability, T/C [3] [%] | viability, T/C [4] [%] | viability, T/C [5] [%] | viability, T/C [6] [%] | viability, T/C [7] [%] | viability, T/C [8] [%] | viability, T/C [9] [%] | viability, T/C [10] [%] | viability, T/C [11] [%] | viability, T/C [12] [%] | viability, T/C [13] [%] | viability, T/C [14] [%] | viability, T/C [15] [%] | other results
1 | Nc1ccccc1NC(=O)c1ccc(CNC(=O)OCc2cccnc2)cc1 + Cc1ccccc1N=Nc1ccc(NC(=O)c2ccnn2C)c(C)c1 | 0.913 | 0.824 | 0.856 | 0.827 | 1.11 | 95.1 | 89.9 | 74.8 | 48.6 | 20.3 | 7.82 | 98.8 | 93.6 | 76.6 | 44.4 | 19.3 | 8.39 | 102 | 94.4 | 83.9 | viability, T/C [16]: 43.8%; viability, T/C [17]: 18.7%; viability, T/C [18]: 9.13%; viability, T/C [19]: 103%; viability, T/C [20]: 99.9%; viability, T/C [21]: 79.1%; viability, T/C [22]: 44.1%; viability, T/C [23]: 19%; viability, T/C [24]: 9.43%; viability, T/C [25]: 91.1%; viability, T/C [26]: 96.1%; viability, T/C [27]: 75.4%; viability, T/C [28]: 56%; viability, T/C [29]: 19.9%; viability, T/C [30]: 9.42%
2 | O=C(C=Cc1cccc(S(=O)(=O)Nc2ccccc2)c1)NO + Cc1ccccc1N=Nc1ccc(NC(=O)c2ccnn2C)c(C)c1 | 1.1 | 1.08 | 1.18 | 1.03 | 1.06 | 100 | 89.7 | 76.1 | 53 | 24.8 | 5.54 | 101 | 97.2 | 77.2 | 54.2 | 21.3 | 5.42 | 103 | 97.4 | 84.8 | viability, T/C [16]: 54.1%; viability, T/C [17]: 22.6%; viability, T/C [18]: 5.11%; viability, T/C [19]: 103%; viability, T/C [20]: 99.3%; viability, T/C [21]: 81%; viability, T/C [22]: 50.2%; viability, T/C [23]: 21.6%; viability, T/C [24]: 5.09%; viability, T/C [25]: 93.4%; viability, T/C [26]: 96.2%; viability, T/C [27]: 76.2%; viability, T/C [28]: 52%; viability, T/C [29]: 22.3%; viability, T/C [30]: 5.86%
3 | O=C(c1cc(Cc2n[nH]c(=O)c3ccccc23)ccc1F)N1CCN(C(=O)C2CC2)CC1 + Cc1ccccc1N=Nc1ccc(NC(=O)c2ccnn2C)c(C)c1 | > 10 | > 10 | > 10 | > 10 | > 10 | 103 | 105 | 102 | 99.8 | 92.5 | 85 | 107 | 109 | 105 | 104 | 98.3 | 90.6 | 111 | 114 | 115 | viability, T/C [16]: 109%; viability, T/C [17]: 101%; viability, T/C [18]: 94.2%; viability, T/C [19]: 111%; viability, T/C [20]: 115%; viability, T/C [21]: 114%; viability, T/C [22]: 106%; viability, T/C [23]: 107%; viability, T/C [24]: 99.4%; viability, T/C [25]: 99.3%; viability, T/C [26]: 110%; viability, T/C [27]: 103%; viability, T/C [28]: 106%; viability, T/C [29]: 96.7%; viability, T/C [30]: 89.1%
